Test system: p-IκBα and COX-2
Assay: LPS-induced acute inflammation, western blot of p-IκBα and COX-2 in lung and liver
Format: in vivo, mouse
Details: acute treatment, LPS 10 mg/kg
Procedure: Fig 6 Newly identified NBD mimetics suppress LPS-induced acute inflammation in vivo. (A) The bioavailability property of SR12460, SR12343, SR12454, and SR11481. Concentrations of NBD mimetics were determined in plasma, brain, muscle, spleen, and liver 2 h post a single i.p. injection of 10 mg/kg of drugs; n = 3 per group. (B) Shown is the model to induce LPS-mediated acute inflammation and the treatment regimen with NBD mimetics. Mouse image via http://www.clker.com/clipart-mice-blank.html (copyright-free). (C) NBD mimetics suppressed LPS-induced acute inflammation in liver and lung by down-regulating NF-κB target gene expression. Vehicle, SR12343, SR12460, and 8K-NBD peptide were dosed at 10 mg/kg 30 min prior to the LPS treatment. Acute inflammation was induced by i.p. injection of 10 mg/kg LPS. Lung and liver were collected 2–4 h post injection, and mRNA was extracted for qRT-PCR analysis. (D, E) Western blot analysis was performed to probe for the expression of p-IκBα and COX-2 at protein level in liver and lung tissues. (F) Serum levels of IL-6 were determine by ELISA. n = 3–8 each group. *P < 0.05, **P < 0.01. […] COX-2, cyclooxygenase 2; IL-6, interleukin 6; i.p., intraperitoneal; LPS, lipopolysaccharide; NBD, NEMO-binding domain; n.d., nondetectable; NEMO, NF-κB essential modulator; NF-κB, nuclear factor κB; qRT-PCR, quantitative real-time polymerase chain reaction. […]

O=C(CNc1ccc(Cl)cn1)NCCc1cccc(Br)c1 [SR12343]
Phosphorylation of IκBα and levels of COX-2 in lung and liver (western blot): reduced
